# Test results published in article PMC4945070 (PLoS Neglected Tropical Diseases, 2016).
# “And” between values parts separate entries of the source, which are not always exact repeats. Equal values may be shown once. “Also recorded” adds a separate entry of the source. Where a name gives a salt, the structure may show the parent alone. Read-outs that look alike come from different tables or passages of the source.
# Columns and labels:
# [1] = target: H. contortus L-AChR1.1 (UNC-63, UNC-38, ACR-8, UNC-29.1) (Haemonchus contortus, UniProt A9XX24+D6MYE9+D6MYF3+D6MYF4); experiment: cell-based; parameters: Emax: dose or concentration left out as unconfirmed
# Procedure: (§1) The H. contortus cDNAs encoding AChR subunits and ancillary proteins were available as expression clones in the pTB207 vector and C. elegans expression clones were a gift from T. Boulin.. cRNA synthesis of each construct required NheI-linearized templates and was performed with the mMessage mMachine T7 Kit (Ambion) according to the manufacturer’s instructions. cRNAs were precipitated with lithium chloride and redissolved in RNAse-free water and stored at -80°C. cRNA concentration was determined using a Nanodrop spectrophotometer (Thermo Scientific) and cRNA purity and integrity was assessed by electrophoresis through a 1% gel stained with GreenGlo nucleic acid dye (Denville Scientific Inc.).
# (§2) Oocytes were collected from mature Xenopus females according to standard procedures and incubated at 19°C in a ND96 solution (NaCl 96 mM, KCl 2 mM, CaCl2 1.8 mM, MgCl2 1 mM, and HEPES 5 mM, pH 7.3 supplemented with sodium pyruvate 2.5 mM). Defolliculated oocytes were injected into the animal pole with approximately 36 nL of a cRNA mix containing 50 ng/μL of each cRNA in RNAse-free water using the Nanoject system (Drummond Scientific, Broomall, PA). Negative controls consisted of oocytes injected with RNAse-free water. Oocytes were then stored at 19°C in ND96 for 5 days to allow receptor expression. In order to prevent activation of endogenous calcium-activated chloride channels, the oocytes were incubated in ND96 supplemented with 100 μM of the calcium chelator BAPTA-AM, 4h prior to recording.
# (§3) Two-electrode voltage-clamp experiments were carried out using a perfusion system connected to a flat RC-1Z chamber (Harvard Apparatus). Glass electrodes were filled with 3M KCl and checked for resistance between 1 and 3 MΩ. The oocyte bath was connected to the ground through a 3 M KCl agar bridge. Agonist and antagonists were dissolved or diluted in recording solution (100 mM NaCl, 2.5 mM KCl, 1 mM CaCl2, 5 mM HEPES, pH 7.3). All measurements were performed using a Geneclamp 500B amplifier and Digidata 1322M (Axon Instruments), oocytes were voltage-clamped at -60 mV. Drug solutions were applied to oocytes by gravity flow using perfusion syringes directly connected to the chamber. Data were collected and analyzed using Clampex 9.2 and Clampfit 9.2 (Axon Instruments, Sunnyvale, CA, USA). Traces were filtered at 30 Hz and analyzed using GraphPad Prism 5.0 software (GraphPad Software, San Diego, CA, USA). Final results are presented as means ± SE.
# [2] = target: H. contortus L-AChR1.3 (UNC-63, UNC-38, ACR-8, UNC-29.3) (Haemonchus contortus, UniProt A9XX24+D6MYF1+D6MYF3+D6MYF4); experiment: cell-based; parameters: Emax: dose or concentration left out as unconfirmed
# Procedure: as §1, §2, §3
# [3] = system: C. elegans L-AChR subunits (Cel-unc-63, Cel-unc-38, Cel-lev-8, Cel-lev-1) with Hco-unc-29 paralog; experiment: Two-electrode voltage clamp of C. elegans / H. contortus AChR subunit admixtures in Xenopus oocytes; assay type: cell-based; conditions: each Hco-unc-29 paralog
# Excerpt: To confirm that the LEV sensitivity rescue could be due to the functional incorporation of parasite protein into the C. elegans L-AChR, we injected into Xenopus oocytes, cRNA admixtures of the four essential C. elegans L-AChR subunits: Cel-unc-63, Cel-unc-38, Cel-lev-8 and Cel-lev-1, the three H. contortus accessory proteins: ric-3, unc-50 and unc-74, and the Cel-unc-29 or each Hco-unc-29 paralog in turn. Reconstitution of the C. elegans L-AChR with Cel-unc-29 produced functional channels as previously described, confirming that the H. contortus accessory proteins are functional between species. Omitting unc-29 produced no response, so any current produced using parasite genes must involve their incorporation into a functional L-AChR. […] UNC-29.1 produced an average of 500 μA currents, while the other three produced reproducible currents below 200 nA with UNC-29.2 producing the smallest response on average (S1 Fig).
# as §1, with “Inc.). […]” for “Inc.).”
# (§4) Two-electrode voltage-clamp experiments were carried out using a perfusion system connected to a flat RC-1Z chamber (Harvard Apparatus). […] Data were collected and analyzed using Clampex 9.2 and Clampfit 9.2 (Axon Instruments, Sunnyvale, CA, USA). Traces were filtered at 30 Hz and analyzed using GraphPad Prism 5.0 software (GraphPad Software, San Diego, CA, USA). […]
# [4] = system: H. contortus L-AChR1.2 (UNC-63, UNC-38, ACR-8, UNC-29.2); assay type: cell-based, Haemonchus contortus; conditions: UNC-29.1 replaced by UNC-29.2; n = 18
# Procedure: as §1, §2
# as §4, with “Apparatus). Glass electrodes were filled with 3M KCl and checked for resistance between 1 and 3 MΩ. The oocyte bath was connected to the ground through a 3 M KCl agar bridge.” for “Apparatus).”
# [5] = target: H. contortus L-AChR1.4 (UNC-63, UNC-38, ACR-8, UNC-29.4) (Haemonchus contortus, UniProt A9XX24+D6MYF2+D6MYF3+D6MYF4); experiment: cell-based; assay type: cell-based; parameters: Emax: dose or concentration left out as unconfirmed
# Procedure: as §1, §2, §3
# [6] = system: C. elegans; conditions: 200 μM LEV
# Procedure: The Cel-unc-29, unc-29.1, unc-29.2, unc-29.3, unc-29.4 cDNA sequences were amplified by PCR using primers containing restriction site inserted with restriction enzymes in the plasmid backbone (Addgene L2534) containing the myo-3 promoter. Strains used in these study were the wild-type Bristol isolate N2 and the LEV resistant isolate CB1072: unc-29 (e1072). Worms were grown on Escherichia coli OP50 seeded NGM (Nematode Growth Medium) plates at 20°C and maintained using standard culture methods. Hermaphrodite young adult C. elegans were transformed by microinjection of plasmids into the gonads. […] Successful transformation was determined by the observation of fluorescence of the selection marker in the two targeted neurones of the head region. Only worms carrying the selection marker were used for the behavioural and pharmacological analysis.
# Three day old adult fluorescent worms were transferred onto unseeded NGM plates, equilibrated at 20°C, containing 200 μM LEV. Drug induced paralysis was determined by visual inspection every 15 min. Worms were defined as paralyzed if no movement was observed within five seconds after prodding the tail with a hair tip. Statistics. Experimental data are shown as mean ± S.D. Statistical comparisons between the unc-29 (e1072) mutant strain and the transformed lines were done using two-way ANOVA with Bonferroni’s multiple comparison post test. A level of p < 0.05 was considered significant.
# [7] = target: H. contortus L-AChR1.1 with added UNC-29.2 (Haemonchus contortus, UniProt A9XX24+D6MYE9+D6MYF3+D6MYF4); experiment: Two-electrode voltage clamp of L-AChR1.1 supplemented with unc-29.2 cRNA in Xenopus oocytes; assay type: cell-based
# Excerpt: Typically, such a situation can be identified by a change in the pharmacological properties of a receptor with addition of the second subunit. To address this, we examined the possibility that UNC-29.2 may interfere with or modify the properties of the reconstituted L-AChR1.1. We prepared oocytes injected with cRNAs to express the H. contortus L-AChR1.1 and supplemented this with an increasing (0.2, 1, 5 times) concentration of cRNA for UNC-29.2 relative to UNC-29.1.
# as §1, §2, §3
smiles,measurement,setting,value
"c1ccc([C@H]2CN3CCSC3=N2)cc1 [LEV, (-)-tetramisole hydrochloride]",Hill,[1],0.84 ± 0.05
same,Relative response (LEV versus ACh),[1],superagonist; also recorded: LEV > ACh
same,EC50,[1]; EC50,4.9 µM and 4.91 µM
same,Emax at 100 µM,"[1]; read-out: LEV current, % of ACh response",125%
same,Emax,[1]; read-out: Max. Current ± S.E.,125 ± 3.76%
same,EC50,[2],1.15 ± 0.08 µM
same,Hill,[2],1.13 ± 0.09
same,Relative response (LEV versus ACh),[2],partial agonist; also recorded: LEV < ACh
same,Emax at 100 µM,"[2]; read-out: LEV current, % of the ACh current",65.2 ± 9.9%
same,Emax,[2]; read-out: Max. Current ± S.E.,65.2 ± 3.5%
same,current on perfusion of 100 μM LEV relative to the ACh response,[3],comparable between subunit copies
same,current in response to 100 μM perfusion,[4],failed to produce any detectable current
same,EC50,[5],2.48 ± 0.35 µM
same,Hill,[5],0.90 ± 0.12
same,Relative response (LEV versus ACh),[5],LEV = ACh
same,Emax,[5]; read-out: Max. Current ± S.E.,94.7 ± 2.93%
same,paralysis on exposure to LEV,"[6]; mutant unc-29(e1072) (CB1072), two hours",barely affected
same,paralysis on exposure to LEV,[6]; unc-29(e1072) transfected with Cel-unc-29,complete rescue of LEV sensitivity
same,paralysis on exposure to LEV,[6]; unc-29(e1072) transfected with each of the four H. contortus unc-29 copies,paralyzed after two hours
same,paralysis on exposure to LEV,[6]; wild-type N2 worms,rapid paralysis that was complete after an hour
same,effect of unc-29.2 cRNA on the pharmacological response,"[7]; 0.2, 1, 5 times unc-29.2 cRNA relative to UNC-29.1",no effect
same,EC50,[7]; 29.1 : 29.2 cRNA 1 : 0.2,3.05 ± 0.44 µM
same,Hill,[7]; 29.1 : 29.2 cRNA 1 : 0.2,0.69 ± 0.09
same,EC50,[7]; 29.1 : 29.2 cRNA 1 : 1,2.41 ± 0.08 µM
same,Hill,[7]; 29.1 : 29.2 cRNA 1 : 1,0.71 ± 0.13
same,EC50,[7]; 29.1 : 29.2 cRNA 1 : 5,3.7 ± 0.35 µM
same,Hill,[7]; 29.1 : 29.2 cRNA 1 : 5,0.77 ± 0.13
"CN1CCCN=C1/C=C/c1cccs1 [Pyrantel, pyrantel citrate]",Emax,[1]; read-out: Max. Current ± S.E.,11.8 ± 0.99%
same,Emax,[2]; read-out: Max. Current ± S.E.,13.8 ± 1.26%
same,Emax,[5]; read-out: Max. Current ± S.E.,7.32 ± 0.98%
"C[N+]1(C)CCN(c2ccccc2)CC1 [DMPP, 1,1-dimethyl-4-phenylpiperazinium iodide]",Emax at 100 µM,"[1]; L-AChR1.1, agonists at 100 μM, normalized to 100 μM acetylcholine, read-out: Max. Current ± S.E.",42 ± 1.41%
same,Emax at 100 µM,"[2]; L-AChR1.3, agonists at 100 μM, normalized to 100 μM acetylcholine, read-out: Max. Current ± S.E.",36.9 ± 3.93%
same,Emax at 100 µM,"[5]; L-AChR1.4, agonists at 100 μM, normalized to 100 μM acetylcholine, read-out: Max. Current ± S.E.",31.6 ± 1%
"COc1cc2c3cc1Oc1cc(ccc1O)C[C@@H]1c4c(cc(OC)c(O)c4Oc4ccc(cc4)C[C@@H]3N(C)CC2)CC[N+]1(C)C [D-turbocurarine, (+)-tubocurarine chloride hydrate]",blocking of ACh elicited currents,"[1]; L-AChR1.1, dTC 100 μM, DHβE 10 μM, MECA 30 μM, 100 μM ACh",efficiently blocked the ACh responses
same,Max. Inhibition ± S.E.,"[1]; L-AChR1.1, inhibition of 100 μM ACh current, dTC 100 μM, DHβE 10 μM, MECA 30 μM",99.63 ± 0.35
same,blocking of ACh elicited currents,"[2]; L-AChR1.3, dTC 100 μM, DHβE 10 μM, MECA 30 μM, 100 μM ACh",efficiently blocked the ACh responses
same,Max Inhibition ± S.E.,"[2]; L-AChR1.3, inhibition of 100 μM ACh current, dTC 100 μM, DHβE 10 μM, MECA 30 μM",99.98 ± 0.02
same,blocking of ACh elicited currents,"[5]; L-AChR1.4, dTC 100 μM, DHβE 10 μM, MECA 30 μM, 100 μM ACh",efficiently blocked the ACh responses
same,Max Inhibition ± S.E.,"[5]; L-AChR1.4, inhibition of 100 μM ACh current, dTC 100 μM, DHβE 10 μM, MECA 30 μM",97.52 ± 1.09
